Data published in patent US20160220567A1, “COMPOSITION FOR TREATING OR PREVENTING BONE DISEASES, COMPRISING HALOFUGINONE AS ACTIVE INGREDIENT” (THE CATHOLIC UNIVERSITY OF KOREA INDUSTRY-ACADEMIC …, priority 2013, published 2016).

Assays:
[1] = test system: mouse model with collagen-induced arthritis; experiment: Arthritis index score in mouse model with collagen-induced arthritis (CIA); assay type: in vivo
Method: (§1) For the construction of a mouse model with collagen-induced arthritis (hereinafter, referred to as “CIA”), a 6-week old male DBA/1J mouse was subjected to primary immunization by intradermal injection after mixing the bovine type II collagen (hereinafter, referred to as “CII”) and complete Freud's adjuvant (CFA) in an amount of 100 μL, respectively. After a week thereafter, halofuginone was injected intraperitoneally at 3 day intervals at a concentration of 100 μg/kg and 500 μg/kg, respectively (9 weeks).
(§2) To examine the therapeutic effect of treating halofuginone of the present invention on arthritis, the clinical score of the joint inflammation of the mouse prepared in Example <1-1> (the mouse with arthritis injected with halofuginone) was measured while observing the mouse. The group treated with a solution in which DMSO was diluted in saline was used as the control group.
The clinical score was evaluated using a clinical score system, in which the respective score for swelling and redness on toes or caudal regions was determined by observing daily the degree of the progress of the joint inflammation on the arthritis lesion of the mouse by the naked eye.

[2] = test system: joint tissue of mouse with arthritis; experiment: Degree of joint destruction by immunohistochemical staining of CIA mouse joints; assay type: in vivo; conditions: CIA mice, according to the concentration of treatment, FIG. 1B
Method: as §1
as §2, with “the” for “the clinical score of the joint inflammation of the”, “sacrificed and” for “measured while observing”, “degree of joint destruction was analyzed via immunohistochemical staining method.” for “mouse.”
The immunohistochemical staining method was performed by the process shown below. The joints of the mice group used above were collected, fixed with 10% neutral buffered formalin, the bones were decalcified with EDTA and embedded in paraffin, the joint tissue was prepared into 7 μm-thick slices and attached to slides. […] The immunohistochemical staining method was used in the joints of mice and analyzed under an optical microscope. […]

[3] = test system: Th17 cells; experiment: mRNA expression of IL-17, CCR6, SOCS3 and Foxp3 in Th17 cells by real-time PCR; assay type: cell-based, mouse; conditions: FIG. 3B
Method: The real-time PCR was performed using the LightCycler 2.0 System Instrument and the reaction compounds were prepared by mixing 1 μL of each cDNA, 10 μL of premix Ex Taq as an enzyme for the initiation, and each primer pair to a final volume of 20 μL using distilled water. The reaction conditions were: reacted at 95° C. for 10 minutes, followed by a total of 50 cycles consisting of denaturation at 95° C. for 10 seconds, annealing at 60° C. for 5 seconds, and extension at 72° C. for 10 seconds. The values of cycle threshold (Ct) were analyzed and the amount of mRNA expression for each target was indicated in terms of the amount of beta-actin mRNA expression and the relative quantity. The primers used are shown below.
Splenocytes were obtained from mice, that is, the spleens removed from the mice and the spleen tissues were thinly ground using a tearing slide and the red blood cells (RBC) in the splenocytes were removed with the RBC lysis solution. Then, PBS buffer solution was added thereto, and the mixture was centrifuged, and washed to obtain splenocytes. Then, the singe cells (1 ? 10^6) isolated from the spleens were aliquoted into a 24-well plate coated with anti-CD3 antibody (1 μg/mL) were treated under the condition of capable of stimulating Th17 cells (anti-CD28 antibody (1 μg/mL), TGF-β (2 ng/ mL), IL-6 (20 ng/mL), anti-IL-4 (10 μg/mL), and anti-IFN-γ (10 μg/mL); the condition of capable of stimulating Th1 cells (anti-CD28 antibody (1 μg/mL), IL-12 (10 ng/mL), and anti-IL-4 (10 μg/mL)); or the condition of capable of stimulating Th2 cells (anti-CD28 antibody (1 μg/mL), IL-4 (10 ng/mL), and anti-IFN-γ (10 μg/mL)); and the cells were cultured for 3 days, and in particular, cultured after treating the cells with halofuginone at respective concentration and cultured. Specifically, DMSO treatment was used for the control group.
The expression of IL-17, CCR6, SOCS3, and Foxp3 in the cells under the condition of Example <2-2> was analyzed by real-time PCR as described in Example <1-6>. The primers used are shown below.

[4] = test system: CD4 T cells isolated from human peripheral blood; experiment: Expression of IL-17 and Foxp3 by flow cytometer in human T cells; assay type: cell-based; conditions: condition of differentiating Th17 cells, flow cytometry, FIG. 6A
Method: The CD4 T cells isolated from human peripheral blood were treated with halofuginone under the condition of differentiating Th17 cells (anti-CD3 (0.5 μg/mL), anti-CD28 (0.5 μg/mL), anti-IFN-γ (10 μg/mL), anti-IL-4 (10 μg/mL), IL-6 (20 ng/mL), and IL-1β (10 ng/mL)) and cultured. Then, the cells were collected, washed with the FACs buffer for flow cytometry analysis, subjected to blocking at 4° C. for the inhibition of non-specific binding for 15 minutes, added with CD4 and CD25 (i.e., cell surface markers) along with anti-CD4-PerCP and anti-CD25-APC and reacted at 4° C. for 30 minutes, and washed with a perm wash buffer. After performing the Cytofix/cytoperm process at 4° C. for 20 minutes, the resultant was washed with the perm wash buffer. Anti Foxp3-FITC and anti IL-17 PE were added thereto, reacted at 4° C. for 30 minutes, and washed with the perm wash buffer. Upon completion of staining, the cells were analyzed using the fluorescentactivated cell sorter (FACs) regarding the expression levels of IL-17 cytokines and Foxp3 according to the halofuginone treatment.

[5] = test system: osteoclasts from mononuclear cells of human peripheral blood; experiment: Bone resorption potential by osteoclasts in human cells; assay type: cell-based; conditions: FIG. 6D
Method: To examine the effect of halofuginone on the bone resorption potential by osteoclasts, murine bone marrow cells were cultured in Dentine slice, and the cultured cells were stimulated with M-CSF, RANKL, and halofuginone, and cultured for 21 additional days. Then, the cells were removed using 5% sodium hypochlorite solution, subjected to Hematoxylin staining, and the bone resorption lacunae formed by the bone resorption of osteoclasts were photographed.
The effect of halofuginone on the bone resorption potential by osteoclasts was observed using the mononuclear cells of human peripheral blood, in the same manner as described in Example <2-7>.

O=C(C[C@H]1NCCC[C@@H]1O)Cn1cnc2cc(Br)c(Cl)cc2c1=O (racemic) [halofuginone]
arthritis index score ([1]; CIA DBA/1J mice, 100 and 500 μg/kg intraperitoneally at 3 day intervals, vs DMSO in saline control, FIG. 1A): decrease in the arthritis index score in a dose-dependent manner | arthritis lesion by the naked eye ([1]; CIA mice, 500 μg/kg): no arthritis lesion at all | joint destruction [2]: significantly decrease | expression of CCR6 [3]: inhibits | expression of Foxp3 [3]: increasing | expression of IL-17 [3]: inhibits | expression of SOCS [3]: increasing | number of Th17 cells [4]: reduces | number of Treg cells [4]: increasing | bone resorption potential [5]: significantly reduced
